Literature values, collected in patent publication US20200368373A1, “OPTICAL IMAGING AGENTS TARGETING INFLAMMATION” (SORBONNE UNIVERSITE, priority 2018, published 2020).

Target: T1, selectin E (Mus musculus, UniProt Q00690)
T1 sequence (Q00690 22-612): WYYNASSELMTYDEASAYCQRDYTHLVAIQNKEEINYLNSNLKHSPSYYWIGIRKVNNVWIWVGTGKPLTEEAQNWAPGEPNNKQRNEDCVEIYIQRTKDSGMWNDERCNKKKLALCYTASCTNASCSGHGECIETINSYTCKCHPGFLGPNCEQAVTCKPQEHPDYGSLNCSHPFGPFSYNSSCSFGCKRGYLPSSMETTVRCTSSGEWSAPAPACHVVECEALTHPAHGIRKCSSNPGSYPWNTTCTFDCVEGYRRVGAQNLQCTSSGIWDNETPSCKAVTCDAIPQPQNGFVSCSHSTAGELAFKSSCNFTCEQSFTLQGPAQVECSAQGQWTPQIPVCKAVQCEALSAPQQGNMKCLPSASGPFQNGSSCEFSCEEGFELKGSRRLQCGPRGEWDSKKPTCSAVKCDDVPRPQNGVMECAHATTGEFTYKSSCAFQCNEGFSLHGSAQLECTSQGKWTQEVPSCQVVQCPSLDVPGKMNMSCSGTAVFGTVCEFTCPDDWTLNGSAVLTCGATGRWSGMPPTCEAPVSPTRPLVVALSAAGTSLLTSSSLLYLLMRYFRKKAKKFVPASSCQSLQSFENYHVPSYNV
Settings: known in the art

affinity for selectin E: high affinity
Substance: Sialyl Lewis X
